In ChEMBL document CHEMBL5096147, “Glycogen Synthase Kinase 3β: A New Gold Rush in Anti-Alzheimer's Disease Multitarget Drug Discovery?” (J Med Chem, 2021):
One block for each molecule: values may come before it.

How the values were obtained:
Adenosine kinase = Adenosine kinase (Homo sapiens, UniProt P55263); assay: Inhibition of human wild type AK expressed in Escherichia coli using [2,8- 3H]-Ado and ATP as substrate by radiometric analysis
[1] = target: T1, Glycogen synthase kinase-3 beta (Homo sapiens, UniProt P49841)
T1 sequence (P49841 whole entry): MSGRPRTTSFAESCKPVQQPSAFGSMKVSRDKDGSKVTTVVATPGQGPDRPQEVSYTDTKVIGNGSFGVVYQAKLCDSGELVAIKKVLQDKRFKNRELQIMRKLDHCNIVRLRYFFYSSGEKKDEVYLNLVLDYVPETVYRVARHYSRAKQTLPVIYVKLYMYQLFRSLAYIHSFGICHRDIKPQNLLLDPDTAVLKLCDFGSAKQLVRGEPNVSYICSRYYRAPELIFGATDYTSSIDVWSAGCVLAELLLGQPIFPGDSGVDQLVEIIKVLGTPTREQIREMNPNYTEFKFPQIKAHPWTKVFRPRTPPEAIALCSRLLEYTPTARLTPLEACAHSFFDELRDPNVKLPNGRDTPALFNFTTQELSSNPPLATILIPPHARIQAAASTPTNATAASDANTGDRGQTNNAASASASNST
Description: Inhibition of GSK-3beta (unknown origin)

Beta-secretase 1 = Beta-secretase 1 (Homo sapiens, UniProt P56817); assay: Inhibition of BACE-1 (unknown origin) using M-240 (methoxycoumarin-Ser-Glu-Val-Asn-Leu-Asp-Ala-Glu-Phe-Lys-dinitrophenyl) peptide as substrate preincubated for 60 mins followed by substrate addition and measured after 15 mins by fluorescence based analysis
Sequence of Beta-secretase 1 (P56817 whole entry): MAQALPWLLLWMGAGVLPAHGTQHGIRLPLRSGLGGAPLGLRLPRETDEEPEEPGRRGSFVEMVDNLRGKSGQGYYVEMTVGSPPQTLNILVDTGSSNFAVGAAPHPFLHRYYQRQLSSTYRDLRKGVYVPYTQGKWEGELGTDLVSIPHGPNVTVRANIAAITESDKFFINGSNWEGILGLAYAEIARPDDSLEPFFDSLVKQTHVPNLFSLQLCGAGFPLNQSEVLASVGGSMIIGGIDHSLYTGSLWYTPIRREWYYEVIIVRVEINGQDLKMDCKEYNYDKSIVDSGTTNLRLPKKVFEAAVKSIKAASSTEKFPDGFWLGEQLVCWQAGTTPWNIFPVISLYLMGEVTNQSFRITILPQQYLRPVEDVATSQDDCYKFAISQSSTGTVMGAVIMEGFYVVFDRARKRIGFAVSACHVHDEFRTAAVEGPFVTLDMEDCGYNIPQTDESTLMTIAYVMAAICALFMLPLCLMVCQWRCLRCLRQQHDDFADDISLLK

[2] = target: T1, Glycogen synthase kinase-3 beta; assay: Inhibition of recombinant human GSK-3beta incubated for 30 mins using prephosphorylated polypeptide as substrate in presence of ATP by Kinase-Glo reagent based luminescent assay
[3] = Kinetic aqueous solubility of the compound in PBS buffer at pH 7.4 at 250 uM and measured after 24 hrs by UPLC/MS analysis; type: physicochemical; conditions: read-out: Kinetic_solubility
[4] = Cmax in CD-1 mouse plasma at 10 mg/kg, po and measured after 30 mins by LC-MS/MS analysis; type: ADME, organism-based; design: dose 10 mg/kg, time 30 min, route po
[5] = Cmax in CD-1 mouse brain at 10 mg/kg, po and measured after 30 mins by LC-MS/MS analysis; type: ADME, organism-based; design: dose 10 mg/kg, time 30 min, route po

Sequence of Adenosine kinase (P55263 whole entry): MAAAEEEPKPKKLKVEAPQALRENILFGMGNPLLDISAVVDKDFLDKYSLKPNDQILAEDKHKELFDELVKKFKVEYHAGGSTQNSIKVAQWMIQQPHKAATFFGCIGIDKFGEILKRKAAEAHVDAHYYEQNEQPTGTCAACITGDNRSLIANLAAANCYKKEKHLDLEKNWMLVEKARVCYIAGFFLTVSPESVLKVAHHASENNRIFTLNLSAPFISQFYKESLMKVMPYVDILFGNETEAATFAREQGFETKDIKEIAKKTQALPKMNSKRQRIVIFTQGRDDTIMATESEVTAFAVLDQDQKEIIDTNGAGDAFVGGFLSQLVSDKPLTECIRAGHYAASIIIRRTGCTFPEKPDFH

IC50 (Adenosine kinase): 1.2 µM
SMILES: CCC1(c2ccc(COc3ccccc3)cc2)Oc2ccccc2-n2cccc2C1=O (configuration not stated)

IC50 [1]: 0.304 µM
SMILES: COc1cc2c(Br)cc3c(c2cc1OC)C(=O)NC3=O

IC50 (Beta-secretase 1): 18 µM
IC50 [2]: 14.7 µM
solubility kinetic at 24 h, 250 µM [3]: > 250 µM
Cmax [4]: 665 ng/mL
Cmax [5]: 0.613 ng/mL
SMILES: NC1=NC(c2ccc(F)cc2)CC(=O)N1 (configuration not stated)
